The species named for data set [1] is Danio rerio. As to the kind of experiment: prevention of heart failure in verapamil treated zebrafish AB assessed as efficacy on blood flow velocity at 0.5 ug/ml preincubated for 4.5 hrs followed by verapamil treatment and measured after 30 mins relative to verapamil alone. The format is functional.
Data set [2] is filed under the species Danio rerio. As to the kind of experiment: Prevention of heart failure in verapamil treated zebrafish AB assessed as efficacy on heart dilation at 0.5 ug/ml preincubated for 4.5 hrs followed by verapamil treatment and measured after 30 mins relative to verapamil alone. The format is functional.
The species entered for data set [3] is Danio rerio. As to the kind of experiment: prevention of heart failure in verapamil treated zebrafish AB assessed as efficacy on venous congestion at 0.5 ug/ml preincubated for 4.5 hrs followed by verapamil treatment and measured after 30 mins relative to verapamil alone. The format is functional.
The species entered for data set [4] is Danio rerio. As to the kind of experiment: prevention of heart failure in verapamil treated zebrafish AB assessed as efficacy on cardiac output at 0.5 ug/ml preincubated for 4.5 hrs followed by verapamil treatment and measured after 30 mins relative to verapamil alone. In kind it is functional.
Data set [5] in a line: Toxicity in zebrafish assessed as induction of adverse effect at 0.5 ug/ml. Details: species or system Danio rerio. The settings on record: in vivo.
Data set [6] in a line: Toxicity in zebrafish assessed as effect on blood flow at 0.5 ug/ml in presence of ponatinib. Set-up: species or system Danio rerio. The settings on record: in vivo.
Data set [7] can be described thus: Toxicity in zebrafish assessed as effect on blood flow at 0.5 ug/ml in presence of verapamil. Details: species or system Danio rerio. To be noted: in vivo.
For data set [8], the species on record is Danio rerio. As to the kind of experiment: prevention of heart failure in verapamil treated zebrafish AB assessed as efficacy on heart rate at 0.8 ug/ml preincubated for 4.5 hrs followed by verapamil treatment and measured after 30 mins relative to verapamil alone. The format is functional.
Data set [9] is filed under the species Danio rerio. The data set can be described thus: prevention of heart failure in verapamil treated zebrafish AB assessed as efficacy on cardiac output at 0.8 ug/ml preincubated for 4.5 hrs followed by verapamil treatment and measured after 30 mins relative to verapamil alone. The format is functional.
For data set [10], the species on record is Danio rerio. As to the kind of experiment: Prevention of heart failure in verapamil treated zebrafish AB assessed as efficacy on heart dilation at 0.8 ug/ml preincubated for 4.5 hrs followed by verapamil treatment and measured after 30 mins relative to verapamil alone. In kind it is functional.
The species named for data set [11] is Danio rerio. As to the kind of experiment: prevention of heart failure in verapamil treated zebrafish AB assessed as efficacy on venous congestion at 0.8 ug/ml preincubated for 4.5 hrs followed by verapamil treatment and measured after 30 mins relative to verapamil alone. In kind it is functional.
Data set [12] is filed under the species Danio rerio. As to the kind of experiment: prevention of heart failure in verapamil treated zebrafish AB assessed as efficacy on blood flow velocity at 0.8 ug/ml preincubated for 4.5 hrs followed by verapamil treatment and measured after 30 mins relative to verapamil alone. The format is functional.
For data set [13], the species on record is Danio rerio. The data set can be described thus: Antithrombotic activity in ponatinib treated zebrafish AB assessed as preventive efficacy on thrombosis at 0.5 ug/ml incubated for 18 hrs by O-dianisidine staining based assay relative to ponatinib alone. The format is functional.
The nature of data set [14]: Toxicity in zebrafish assessed as induction of adverse effect at 0.5 ug/ml in presence of verapamil. Details: species or system Danio rerio. To be noted: in vivo.
The species entered for data set [15] is Danio rerio. The data set can be described thus: prevention of heart failure in verapamil treated zebrafish AB assessed as efficacy on heart rate at 0.5 ug/ml preincubated for 4.5 hrs followed by verapamil treatment and measured after 30 mins relative to verapamil alone. In kind it is functional.
Data set [16] is described as follows: Toxicity in zebrafish assessed as induction of adverse effect at 0.5 ug/ml in presence of ponatinib. Set-up: species or system Danio rerio. The settings on record: in vivo.
Data set [17] is filed under the species Danio rerio. The data set can be described thus: Antithrombotic activity in ponatinib treated zebrafish AB assessed as preventive efficacy on thrombosis at 45 ug/ml incubated for 18 hrs by O-dianisidine staining based assay relative to ponatinib alone. The format is functional.
Data set [18] is filed under the species Danio rerio. The data set can be described thus: Prevention of heart failure in verapamil treated zebrafish AB assessed as efficacy on heart dilation preincubated for 4.5 hrs followed by verapamil treatment and measured after 30 mins. In kind it is functional, organism-based.
For data set [19], the species on record is Danio rerio. As to the kind of experiment: prevention of heart failure in verapamil treated zebrafish AB assessed as efficacy on blood flow velocity at 10 ug/ml preincubated for 4.5 hrs followed by verapamil treatment and measured after 30 mins relative to verapamil alone. The format is functional.
For data set [20], the species on record is Danio rerio. The data set can be described thus: prevention of heart failure in verapamil treated zebrafish AB assessed as efficacy on cardiac output at 10 ug/ml preincubated for 4.5 hrs followed by verapamil treatment and measured after 30 mins relative to verapamil alone. In kind it is functional.
The species named for data set [21] is Danio rerio. As to the kind of experiment: Prevention of heart failure in verapamil treated zebrafish AB assessed as efficacy on heart dilation at 10 ug/ml preincubated for 4.5 hrs followed by verapamil treatment and measured after 30 mins relative to verapamil alone. In kind it is functional.
The species entered for data set [22] is Danio rerio. As to the kind of experiment: prevention of heart failure in verapamil treated zebrafish AB assessed as efficacy on venous congestion at 10 ug/ml preincubated for 4.5 hrs followed by verapamil treatment and measured after 30 mins relative to verapamil alone. In kind it is functional.

Calls of active or inactive are those of the source. The rule behind the calls is not given here.

Turning to `COCCc1ccc(OCC(O)CNC(C)C)cc1` (configuration not stated) [METOPROLOL], the Activity is given as 17% in the data set listed under Danio rerio [1], 34% in the data set filed under Danio rerio [2], 29% in the data set filed under Danio rerio [3] and 35% in the data set filed under Danio rerio [4].

Consider `C=C([C@@H]1CC=C(C)C(=O)O1)[C@@H]1CC[C@]2(C)[C@@H]1CC[C@@H]1[C@]34CC[C@@](O)(OC3)C(C)(C)[C@@H]4CC[C@]12C`, for which the Activity result in data set [5] is listed as “Non-Toxic”; in [6], “Toxic”; in data set [7] it was “Toxic”.

Take `C[C@H]1O[C@@H](O[C@H]2[C@@H](O)C[C@H](O[C@H]3[C@@H](O)C[C@H](O[C@H]4CC[C@@]5(C)[C@H](CC[C@@H]6[C@@H]5C[C@@H](O)[C@]5(C)[C@@H](C7=CC(=O)OC7)CC[C@]65O)C4)O[C@@H]3C)O[C@@H]2C)C[C@H](O)[C@@H]1O` [DIGOXIN]: the Activity was 52% in the data set filed under Danio rerio [8]; 41% in the data set filed under Danio rerio [9]; 68% in the data set filed under Danio rerio [10]; 28% in the data set filed under Danio rerio [1]; 53% in the data set filed under Danio rerio [2]; 67% in the data set filed under Danio rerio [11]. Besides, the values for the Activity in the data set listed under Danio rerio [12], in the data set filed under Danio rerio [3] and in the data set filed under Danio rerio [4] were 38%, 73% and 40%, respectively.

For `NS(=O)(=O)c1cc2c(cc1Cl)NCNS2(=O)=O` [HYDROCHLOROTHIAZIDE], the Activity in the data set listed under Danio rerio [1] is 33%; in the data set filed under Danio rerio [2], 56%; in the data set listed under Danio rerio [3], 60%; in the data set listed under Danio rerio [4], 53%.

As to `CCCCC1=NC2(CCCC2)C(=O)N1Cc1ccc(-c2ccccc2-c2nnn[nH]2)cc1` [IRBESARTAN], the Activity in the data set filed under Danio rerio [1] was 15%; in the data set listed under Danio rerio [2], 30%; in the data set filed under Danio rerio [3] it was 36%; in the data set listed under Danio rerio [4] it was 25%.

Turning to `C=C([C@@H]1CC=C(C)C(=O)O1)[C@@H]1CC[C@]2(C)[C@@H]1CC[C@@H]1[C@@]3(C)CCC(=O)C(C)(C)[C@@H]3CC[C@]12C`, the Activity entry in [5] is reported as “Non-Toxic”; in the data set listed under Danio rerio [13], 65%; in the data set listed under Danio rerio [1] it was 67%; in the data set listed under Danio rerio [2] it was 55%; in [14], “Non-Toxic”; in the data set listed under Danio rerio [15], 27%. The Activity entry is on record as “Non-Toxic” in data set [16], 23% in the data set filed under Danio rerio [3] and 41% in the data set listed under Danio rerio [4].

For the compound `C=C(CC/C=C(/C)C(=O)O)[C@@H]1CC[C@]2(C)[C@@H]1CC[C@@H]1[C@]34CC[C@@](O)(OC3)C(C)(C)[C@@H]4CC[C@]12C`, the Activity result in data set [5] is recorded as “Non-Toxic”; in the data set listed under Danio rerio [13], 24%; in the data set listed under Danio rerio [1], 83%; in the data set filed under Danio rerio [2], 65%; in [14], “Non-Toxic”; in the data set filed under Danio rerio [15] it was 77%. In addition, the Activity entry in data set [16] is “Non-Toxic”; in the data set listed under Danio rerio [3], 62%; in the data set filed under Danio rerio [4] it was 72%.

With `CC(=O)Oc1ccccc1C(=O)O` [ASPIRIN], in the data set filed under Danio rerio [17], the Activity was 86%.

With `C=C(CCC=C(CO)CO)[C@@H]1CC[C@]2(C)[C@@H]1CC[C@@H]1[C@@]3(C)CCC(=O)C(C)(C)[C@@H]3CC[C@]12C`, the Activity entry in data set [5], in data set [14] and in data set [16] was “Non-Toxic” each time. Moreover, the outcome in the data set filed under Danio rerio [18] was inactive.

`CCOC(=O)[C@H](CCc1ccccc1)N[C@@H](C)C(=O)N1CCC[C@H]1C(=O)O` [ENALAPRIL]: the Activity in the data set filed under Danio rerio [19] is listed as 26%; in the data set listed under Danio rerio [20], 34%; in the data set filed under Danio rerio [21], 31%; in the data set listed under Danio rerio [22], 34%.

For `C/C(=C/CC/C(CO)=C1\CC[C@]2(C)[C@@H]1CC[C@@H]1[C@@]3(C)CCC(=O)C(C)(C)[C@@H]3CC[C@]12C)CO`, the Activity entry in data set [5], in [14] and in [16] was “Non-Toxic” throughout. The outcome in the data set filed under Danio rerio [18] was inactive.

As for `C=C([C@@H]1CC[C@]2(C)[C@@H]1CC[C@@H]1[C@]34CC[C@@](O)(OC3)C(C)(C)[C@@H]4CC[C@]12C)[C@@H]1OC(=O)C(C)=C[C@H]1O`, the Activity entry in data set [5] is “Non-Toxic”; in the data set filed under Danio rerio [13], 10%; in the data set listed under Danio rerio [1] it was 65%; in the data set listed under Danio rerio [2], 63%; in data set [14] it was “Non-Toxic”; in the data set filed under Danio rerio [15], 54%. The Activity entry in data set [16] is “Non-Toxic”; in the data set filed under Danio rerio [3] it was 59%; in the data set filed under Danio rerio [4] it was 64%.

On to `C=C([C@@H]1CC=C(C)C(=O)O1)[C@@H]1CC[C@]2(C)[C@@H]1CC[C@@H]1[C@@]34CO[C@](O)(C[C@H]3O)C(C)(C)[C@@H]4CC[C@]12C`, for which the Activity entry in data set [5] is “Non-Toxic”; in the data set filed under Danio rerio [13] it was 68%; in the data set listed under Danio rerio [1], 65%; in the data set listed under Danio rerio [2], 66%; in [14], “Non-Toxic”; in the data set filed under Danio rerio [15] it was 60%. Besides, the Activity entry in [16] is reported as “Non-Toxic”; in the data set listed under Danio rerio [3], 51%; in the data set listed under Danio rerio [4], 58%.

Take `C=C([C@@H]1CC=C(C)C(=O)O1)[C@@H]1CC[C@]2(C)[C@@H]1CC[C@@H]1[C@@]34CO[C@](O)([C@@H](O)C3)C(C)(C)[C@@H]4CC[C@]12C`: the Activity result is “Non-Toxic” in [5]; 76% in the data set filed under Danio rerio [13]; 27% in the data set filed under Danio rerio [1]; 73% in the data set listed under Danio rerio [2]; “Non-Toxic” in data set [14]; 57% in the data set filed under Danio rerio [15]. Besides, the Activity result in data set [16] is on record as “Non-Toxic”; in the data set listed under Danio rerio [3], 31%; in the data set filed under Danio rerio [4], 22%.

The values above are taken from ChEMBL document CHEMBL4602680, “Dammarane-Type Triterpenoids from the Roots of Rhus chinensis and Their Preventive Effects on Zebrafish Heart Failure and Thrombosis” (J Nat Prod, 2020).
